Laboratory results as given in patent publication US20090238808A1, “Process for the identification of novel enzyme interacting compounds” (priority 2005, published 2009).

Tests used:
[1] = test system: phosphorylation sites on kinobeads-captured proteins, K562 cells; assay: Phosphorylation analysis of kinobeads-captured proteins from drug-treated K562 cells; type: cell-based, human; conditions: of 379 sites on 136 proteins identified
Source text: To explore not only the direct targets of the drugs but also their downstream effects on signaling pathways, aliquots of the iTRAQ-labeled peptide mixtures from kinobeads precipitates were subjected to phosphopeptide enrichment and subsequent identification and quantification by mass spectrometry. […] Indeed, most of these proteins have been implicated in signaling events downstream of ABL (FIG. 10b)^16, 18. For all three drugs together, we found down-regulation of 20 sites on 13 proteins (FIGS. 22 and 23).
Mass Spectrometry and Data analysis.
LC-MS/MS for IMAC samples were performed twice.

[2] = biological target: BTK (Homo sapiens, UniProt Q06187); assay: Biochemical kinase activity assay (Invitrogen SelectScreen); conditions: read-out: % inhibition, BTK
Sequence of BTK (Q06187 whole entry): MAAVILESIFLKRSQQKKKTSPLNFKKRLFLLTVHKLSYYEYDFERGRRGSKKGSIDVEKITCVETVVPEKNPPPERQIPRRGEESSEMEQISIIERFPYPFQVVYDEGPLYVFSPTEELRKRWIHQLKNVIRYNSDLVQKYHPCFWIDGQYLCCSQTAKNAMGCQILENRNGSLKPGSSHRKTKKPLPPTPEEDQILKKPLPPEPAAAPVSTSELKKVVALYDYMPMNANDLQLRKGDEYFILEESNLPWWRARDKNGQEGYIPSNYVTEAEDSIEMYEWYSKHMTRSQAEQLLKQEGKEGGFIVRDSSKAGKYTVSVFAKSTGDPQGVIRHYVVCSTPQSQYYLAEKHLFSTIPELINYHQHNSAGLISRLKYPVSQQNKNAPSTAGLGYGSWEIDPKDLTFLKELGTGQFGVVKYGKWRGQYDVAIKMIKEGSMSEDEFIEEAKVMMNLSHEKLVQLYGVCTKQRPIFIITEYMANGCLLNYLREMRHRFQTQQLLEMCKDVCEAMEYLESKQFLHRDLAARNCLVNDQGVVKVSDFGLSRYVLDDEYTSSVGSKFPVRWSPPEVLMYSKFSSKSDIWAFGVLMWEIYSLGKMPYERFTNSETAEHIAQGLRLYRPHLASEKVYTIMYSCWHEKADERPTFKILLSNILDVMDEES

[3] = biological target: EphB4 (Homo sapiens, UniProt P54760); assay: as above; conditions: read-out: % inhibition, EphB4
Sequence of EphB4 (P54760 16-987): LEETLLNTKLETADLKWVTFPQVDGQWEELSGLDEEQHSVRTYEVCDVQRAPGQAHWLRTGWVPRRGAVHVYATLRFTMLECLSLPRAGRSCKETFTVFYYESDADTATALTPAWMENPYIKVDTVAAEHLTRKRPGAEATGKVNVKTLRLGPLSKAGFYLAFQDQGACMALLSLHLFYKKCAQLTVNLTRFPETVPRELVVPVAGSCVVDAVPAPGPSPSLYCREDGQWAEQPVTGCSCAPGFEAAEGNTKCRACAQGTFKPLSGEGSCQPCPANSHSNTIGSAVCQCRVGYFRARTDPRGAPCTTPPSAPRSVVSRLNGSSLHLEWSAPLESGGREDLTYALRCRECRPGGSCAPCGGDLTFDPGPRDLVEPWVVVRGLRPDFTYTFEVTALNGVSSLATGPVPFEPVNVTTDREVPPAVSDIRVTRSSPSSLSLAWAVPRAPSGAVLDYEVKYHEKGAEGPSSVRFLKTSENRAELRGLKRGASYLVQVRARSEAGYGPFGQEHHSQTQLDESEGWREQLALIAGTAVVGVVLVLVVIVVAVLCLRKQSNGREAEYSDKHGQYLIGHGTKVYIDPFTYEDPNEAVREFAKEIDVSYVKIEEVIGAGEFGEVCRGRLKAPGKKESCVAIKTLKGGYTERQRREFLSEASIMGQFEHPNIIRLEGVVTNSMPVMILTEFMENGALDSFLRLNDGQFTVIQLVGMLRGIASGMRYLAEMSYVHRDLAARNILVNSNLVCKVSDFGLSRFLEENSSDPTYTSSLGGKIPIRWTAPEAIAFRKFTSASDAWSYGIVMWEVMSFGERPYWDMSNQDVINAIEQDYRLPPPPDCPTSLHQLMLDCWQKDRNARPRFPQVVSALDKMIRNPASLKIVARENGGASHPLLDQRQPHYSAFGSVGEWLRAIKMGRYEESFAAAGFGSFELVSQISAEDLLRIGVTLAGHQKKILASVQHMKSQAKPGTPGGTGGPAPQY

[4] = biological target: FAK/PTK2 (Homo sapiens, UniProt Q05397); assay: as above; conditions: read-out: % inhibition, FAK
Sequence of FAK/PTK2 (Q05397 whole entry): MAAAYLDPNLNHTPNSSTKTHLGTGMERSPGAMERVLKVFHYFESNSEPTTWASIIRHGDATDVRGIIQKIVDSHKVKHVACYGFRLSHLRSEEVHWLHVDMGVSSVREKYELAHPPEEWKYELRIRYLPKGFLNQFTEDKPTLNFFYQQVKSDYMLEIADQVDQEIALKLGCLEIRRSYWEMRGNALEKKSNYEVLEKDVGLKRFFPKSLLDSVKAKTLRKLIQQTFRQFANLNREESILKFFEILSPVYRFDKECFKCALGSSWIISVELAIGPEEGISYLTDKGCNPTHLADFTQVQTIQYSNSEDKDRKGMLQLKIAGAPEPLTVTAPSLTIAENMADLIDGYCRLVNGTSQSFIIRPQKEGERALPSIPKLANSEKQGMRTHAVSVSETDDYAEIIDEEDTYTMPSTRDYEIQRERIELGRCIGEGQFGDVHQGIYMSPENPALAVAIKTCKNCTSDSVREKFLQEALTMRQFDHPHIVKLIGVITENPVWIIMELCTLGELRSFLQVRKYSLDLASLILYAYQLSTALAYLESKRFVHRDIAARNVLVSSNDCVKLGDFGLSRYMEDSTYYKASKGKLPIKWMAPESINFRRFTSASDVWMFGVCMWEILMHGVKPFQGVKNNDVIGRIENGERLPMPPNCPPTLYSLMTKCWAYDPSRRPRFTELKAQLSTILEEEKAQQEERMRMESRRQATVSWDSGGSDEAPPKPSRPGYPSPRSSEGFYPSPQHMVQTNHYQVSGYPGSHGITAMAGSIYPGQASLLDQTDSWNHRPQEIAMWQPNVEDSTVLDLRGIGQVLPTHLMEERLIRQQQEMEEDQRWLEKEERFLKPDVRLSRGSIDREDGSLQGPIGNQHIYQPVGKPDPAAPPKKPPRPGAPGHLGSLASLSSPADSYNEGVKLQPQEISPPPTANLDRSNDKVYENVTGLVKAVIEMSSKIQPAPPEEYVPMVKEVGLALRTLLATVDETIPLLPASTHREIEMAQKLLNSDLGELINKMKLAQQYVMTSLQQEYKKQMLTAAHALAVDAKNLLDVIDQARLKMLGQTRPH

[5] = biological target: FER (Homo sapiens, UniProt P16591); assay: as above; conditions: read-out: % inhibition, FER
[6] = biological target: GCK (Homo sapiens, UniProt Q12851); assay: as above; conditions: read-out: % inhibition, GCK
Sequence of GCK (Q12851 whole entry): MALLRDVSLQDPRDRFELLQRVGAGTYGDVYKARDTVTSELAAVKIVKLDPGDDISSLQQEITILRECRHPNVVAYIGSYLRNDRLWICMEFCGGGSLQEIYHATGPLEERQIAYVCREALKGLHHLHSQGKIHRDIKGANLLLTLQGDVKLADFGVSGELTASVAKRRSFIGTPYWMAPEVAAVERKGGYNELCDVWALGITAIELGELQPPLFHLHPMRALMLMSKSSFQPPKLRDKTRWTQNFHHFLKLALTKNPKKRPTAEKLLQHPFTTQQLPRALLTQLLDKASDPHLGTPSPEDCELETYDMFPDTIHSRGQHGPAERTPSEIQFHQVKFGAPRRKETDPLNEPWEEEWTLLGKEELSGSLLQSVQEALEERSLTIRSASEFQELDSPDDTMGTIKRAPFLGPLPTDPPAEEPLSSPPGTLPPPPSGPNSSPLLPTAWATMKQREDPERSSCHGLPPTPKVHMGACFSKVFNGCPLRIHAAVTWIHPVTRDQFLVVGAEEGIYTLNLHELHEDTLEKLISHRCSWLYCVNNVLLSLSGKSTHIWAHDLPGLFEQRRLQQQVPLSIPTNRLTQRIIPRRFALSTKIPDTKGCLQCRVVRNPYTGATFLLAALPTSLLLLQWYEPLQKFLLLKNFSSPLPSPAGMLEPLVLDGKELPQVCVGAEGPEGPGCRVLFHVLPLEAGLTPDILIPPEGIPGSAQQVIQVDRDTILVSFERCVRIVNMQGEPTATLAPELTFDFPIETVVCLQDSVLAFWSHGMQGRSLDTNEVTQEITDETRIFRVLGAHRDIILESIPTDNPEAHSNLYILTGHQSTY

[7] = biological target: KHS1 (Homo sapiens, UniProt Q9Y4K4); assay: as above; conditions: read-out: % inhibition, KHS1
Sequence of KHS1 (Q9Y4K4 whole entry): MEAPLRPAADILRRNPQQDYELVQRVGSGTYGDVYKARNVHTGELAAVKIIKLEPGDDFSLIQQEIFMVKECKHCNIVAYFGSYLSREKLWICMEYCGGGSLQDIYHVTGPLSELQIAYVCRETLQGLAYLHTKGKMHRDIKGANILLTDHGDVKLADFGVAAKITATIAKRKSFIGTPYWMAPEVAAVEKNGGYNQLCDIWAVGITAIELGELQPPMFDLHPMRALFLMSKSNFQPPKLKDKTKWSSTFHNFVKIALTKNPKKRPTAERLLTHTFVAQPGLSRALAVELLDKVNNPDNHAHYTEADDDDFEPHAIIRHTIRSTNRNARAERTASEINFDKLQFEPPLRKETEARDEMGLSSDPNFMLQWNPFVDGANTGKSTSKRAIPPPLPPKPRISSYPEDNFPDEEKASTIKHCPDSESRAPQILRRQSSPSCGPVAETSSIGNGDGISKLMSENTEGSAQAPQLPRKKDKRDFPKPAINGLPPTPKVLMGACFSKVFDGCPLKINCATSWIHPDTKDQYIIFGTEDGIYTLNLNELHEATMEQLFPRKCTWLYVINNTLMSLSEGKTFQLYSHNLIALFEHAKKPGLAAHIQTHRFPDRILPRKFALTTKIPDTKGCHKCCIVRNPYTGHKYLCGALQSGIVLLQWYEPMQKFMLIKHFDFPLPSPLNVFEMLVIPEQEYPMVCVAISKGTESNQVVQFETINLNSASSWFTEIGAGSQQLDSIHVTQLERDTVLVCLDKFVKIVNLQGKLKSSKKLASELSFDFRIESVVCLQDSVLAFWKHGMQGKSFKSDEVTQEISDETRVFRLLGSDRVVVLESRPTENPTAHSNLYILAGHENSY

[8] = biological target: T1, MER (Homo sapiens, UniProt Q12866); assay: as above; conditions: read-out: % inhibition, MER
T1 sequence (Q12866 21-999): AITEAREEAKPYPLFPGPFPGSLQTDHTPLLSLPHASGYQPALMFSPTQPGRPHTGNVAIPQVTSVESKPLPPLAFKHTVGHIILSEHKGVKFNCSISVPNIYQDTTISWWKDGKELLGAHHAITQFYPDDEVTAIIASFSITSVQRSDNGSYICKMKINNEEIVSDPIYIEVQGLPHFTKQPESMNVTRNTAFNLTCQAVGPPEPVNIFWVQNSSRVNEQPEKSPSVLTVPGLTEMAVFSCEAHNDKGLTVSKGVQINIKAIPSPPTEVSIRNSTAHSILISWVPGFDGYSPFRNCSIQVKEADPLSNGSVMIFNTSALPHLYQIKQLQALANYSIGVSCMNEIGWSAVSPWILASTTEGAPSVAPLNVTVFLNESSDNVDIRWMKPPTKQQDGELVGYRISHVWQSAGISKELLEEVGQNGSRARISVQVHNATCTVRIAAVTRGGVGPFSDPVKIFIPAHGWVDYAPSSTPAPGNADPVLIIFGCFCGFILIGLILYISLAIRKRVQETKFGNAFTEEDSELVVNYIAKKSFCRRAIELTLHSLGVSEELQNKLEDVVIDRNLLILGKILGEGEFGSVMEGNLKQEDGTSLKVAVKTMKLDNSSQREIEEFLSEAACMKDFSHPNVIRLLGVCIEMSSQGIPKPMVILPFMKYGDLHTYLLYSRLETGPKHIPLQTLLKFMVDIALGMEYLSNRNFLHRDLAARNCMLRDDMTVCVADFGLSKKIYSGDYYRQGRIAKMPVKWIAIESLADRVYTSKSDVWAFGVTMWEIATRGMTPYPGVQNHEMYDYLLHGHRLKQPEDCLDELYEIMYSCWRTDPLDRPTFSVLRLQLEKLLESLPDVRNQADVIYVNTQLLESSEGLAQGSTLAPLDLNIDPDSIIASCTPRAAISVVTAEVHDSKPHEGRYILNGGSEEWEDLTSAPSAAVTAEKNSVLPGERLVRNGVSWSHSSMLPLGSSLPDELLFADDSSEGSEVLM

inhibition at 5 µM [2]: 4% | inhibition at 5 µM [3]: 5% | inhibition at 5 µM [4]: 2% | inhibition at 5 µM [5]: 14% | inhibition at 5 µM [6]: 10% | inhibition at 5 µM [7]: 14% | inhibition at 5 µM [8]: 11%
SMILES: Cc1ccc(NC(=O)c2ccc(CN3CCN(C)CC3)cc2)cc1Nc1nccc(-c2cccnc2)n1 [imatinib]
number of phosphorylation sites with substantial down-regulation [1]: Eight
